Experimental data as given in article PMC9403976, “Elucidating the path to Plasmodium prolyl-tRNA synthetase inhibitors that overcome halofuginone resistance” (Nature Communications, 2022).
Where “and” joins values, the source holds several entries; their conditions need not be identical. Identical values can stand only once. Like-named read-outs stand apart in the source and are kept apart here.

How the values were obtained:
P. falciparum Dd2-2D4 = assay: P. falciparum asexual blood stage (ABS) growth assay, SYBR Green, 72 h, wild-type parasites; type: cell-based, Plasmodium falciparum; conditions: for parasite growth, replicate wells (Fig 1b): Dd2-2D4
[1] = system: HFGR-I P. falciparum (elevated proline homeostasis and PfcProRS^L482H); assay: P. falciparum ABS growth assay, SYBR Green, 72 h, HFGR-I parasites; type: cell-based, Plasmodium falciparum; conditions: HFGR-I, listed as Halofuginone (1)
Method in brief: (§1)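 Dd2-derived P. falciparum lines (HFGR-I, halofuginone-induced) at 1% parasitemia and 1% hematocrit in RPMI + 0.5% Albumax were exposed to compounds in triplicate dose-response for 72 h. Growth was read as SYBR Green 1 fluorescence, with 10 μM dihydroartemisinin as kill control and compound-free wells as growth control.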

[2] = system: halofuginone-induced P. falciparum (elevated proline homeostasis); assay: P. falciparum ABS growth assay, SYBR Green, 72 h, halofuginone-induced parasites; type: cell-based, Plasmodium falciparum; conditions: Halofuginone-Induced
Method in brief: as §1

[3] = system: P. falciparum Dd2-2D4 NCP26 selections S1-3; assay: ABS growth assay on bulk populations and clones from NCP26 resistance selections S1-3; type: cell-based, Plasmodium falciparum; conditions: for EC50: Plasmodium falciparum; for Fold-change Resistance: independent experiments
Experimental: In short, P. falciparum erythrocytic-stage parasites at 1% parasitemia and 1% hematocrit in RPMI + 0.5% Albumax were seeded at 40 μL/well in 384-well plates with test compounds in triplicate, dose-response format with 10 μM dihydroartemisinin as a kill-control and blank (no compound) wells as a growth-control. […] After 72 h, growth was quantified by measuring fluorescence (Molecular Devices SpectraMax iD5) following SYBR Green 1 staining. Data were analyzed in Excel and plotted in PRISM (V. 8.4.3–9.1.0, GraphPad).
This cycle was repeated for ~50 generations (~100 days), corresponding to 5–6 cycles of drug pressure.
Clonal parasites were isolated from each selection flask by limiting dilution of ring stage parasites in 96-well plates to an average of 0.8 and 0.2 parasites per well.

PfcProRS = target: T1, PfcProRS (Plasmodium falciparum, UniProt Q8I5R7); type: binding; conditions: for dose-response signal (normalized), SI Fig 8: single replicates, listed as Halofuginone (1)
T1 construct: made in house; host or cells: E. coli SoluBL-21
T1 sequence (Q8I5R7 249-746): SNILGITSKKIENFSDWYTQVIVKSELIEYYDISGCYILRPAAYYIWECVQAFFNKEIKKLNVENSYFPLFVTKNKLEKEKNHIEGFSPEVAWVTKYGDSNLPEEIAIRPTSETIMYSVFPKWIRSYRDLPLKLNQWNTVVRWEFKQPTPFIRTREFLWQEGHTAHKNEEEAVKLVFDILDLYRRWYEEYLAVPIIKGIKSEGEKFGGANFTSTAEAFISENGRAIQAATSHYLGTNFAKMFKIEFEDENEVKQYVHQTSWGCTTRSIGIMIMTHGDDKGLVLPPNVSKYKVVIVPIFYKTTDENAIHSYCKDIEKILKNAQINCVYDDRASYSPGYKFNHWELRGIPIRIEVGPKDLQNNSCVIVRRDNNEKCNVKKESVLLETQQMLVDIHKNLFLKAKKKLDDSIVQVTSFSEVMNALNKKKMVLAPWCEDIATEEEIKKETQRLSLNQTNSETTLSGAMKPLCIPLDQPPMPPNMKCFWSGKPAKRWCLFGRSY

[4] = Log[inhibitor] (M) -8.806, listed as Halofuginone (1)
[5] = Log[inhibitor] (M) -9.107, listed as Halofuginone (1)
[6] = Log[inhibitor] (M) -9.408, listed as Halofuginone (1)
[7] = Log[inhibitor] (M) -9.709, listed as Halofuginone (1)
[8] = Log[inhibitor] (M) -10.010, listed as Halofuginone (1)
[9] = Log[inhibitor] (M) -10.311, listed as Halofuginone (1)

O=C(CC1NCCCC1O)Cn1cnc2cc(Br)c(Cl)cc2c1=O (centres unmarked) [Halofuginone]
parasite growth, replicate wells (Fig 1b) (P. falciparum Dd2-2D4; Log[inhibitor] (M) -8.505): 0.00E+00
parasite growth, replicate wells (Fig 1b) (P. falciparum Dd2-2D4; [4]): 0.00E+00 (2×) and -1.00E+00
parasite growth, replicate wells (Fig 1b) (P. falciparum Dd2-2D4; [5]): 5.00E+00 (2×) and 4.00E+00
parasite growth, replicate wells (Fig 1b) (P. falciparum Dd2-2D4; [6]): 9.10E+01 and 8.70E+01 and 8.90E+01
parasite growth, replicate wells (Fig 1b) (P. falciparum Dd2-2D4; [7]): 1.04E+02 and 1.07E+02 (2×)
parasite growth, replicate wells (Fig 1b) (P. falciparum Dd2-2D4; [8]): 1.06E+02 and 1.04E+02 (2×)
parasite growth, replicate wells (Fig 1b) (P. falciparum Dd2-2D4; [9]): 9.80E+01 and 9.90E+01 and 9.70E+01
EC50 (P. falciparum Dd2-2D4; Plasmodium falciparum, DD2, SI Fig 16b, values on -log scale, read-out: ABS - Dd2-2D4 (converted)): 0.519 nM
parasite growth, replicate wells (Fig 1b) ([1]; Log[inhibitor] (M) -5.204): 3.00E+00 and 2.00E+00 and 4.00E+00
parasite growth, replicate wells (Fig 1b) ([1]; Log[inhibitor] (M) -5.505): 4.00E+00 (2×) and 3.00E+00
parasite growth, replicate wells (Fig 1b) ([1]; Log[inhibitor] (M) -5.806): 3.00E+00 (2×) and 4.00E+00
parasite growth, replicate wells (Fig 1b) ([1]; Log[inhibitor] (M) -6.107): 6.00E+00 (2×) and 5.00E+00
parasite growth, replicate wells (Fig 1b) ([1]; Log[inhibitor] (M) -6.408): 1.70E+01 (2×) and 1.60E+01
parasite growth, replicate wells (Fig 1b) ([1]; Log[inhibitor] (M) -6.709): 5.40E+01 and 5.50E+01 (2×)
parasite growth, replicate wells (Fig 1b) ([1]; Log[inhibitor] (M) -7.000): 7.70E+01 and 8.00E+01 and 8.50E+01
parasite growth, replicate wells (Fig 1b) ([1]; Log[inhibitor] (M) -7.010): 8.50E+01 and 8.60E+01 and 8.30E+01
parasite growth, replicate wells (Fig 1b) ([1]; Log[inhibitor] (M) -7.301): 9.80E+01 and 1.03E+02 and 9.90E+01
parasite growth, replicate wells (Fig 1b) ([1]; Log[inhibitor] (M) -7.311): 9.50E+01 and 9.00E+01 and 9.10E+01
parasite growth, replicate wells (Fig 1b) ([1]; Log[inhibitor] (M) -7.602): 1.01E+02 and 1.03E+02 and 1.05E+02
parasite growth, replicate wells (Fig 1b) ([1]; Log[inhibitor] (M) -7.903): 1.04E+02 and 1.03E+02 and 1.06E+02
parasite growth, replicate wells (Fig 1b) ([1]; Log[inhibitor] (M) -8.204): 1.05E+02 and 1.07E+02 and 1.03E+02
parasite growth, replicate wells (Fig 1b) ([1]; Log[inhibitor] (M) -8.505): 1.06E+02 and 1.04E+02 and 1.02E+02
parasite growth, replicate wells (Fig 1b) ([2]; Log[inhibitor] (M) -7.000): 1.00E+00
parasite growth, replicate wells (Fig 1b) ([2]; Log[inhibitor] (M) -7.301): 6.00E+00
parasite growth, replicate wells (Fig 1b) ([2]; Log[inhibitor] (M) -7.602, listed as Halofuginone (1)): 2.30E+01 and 2.20E+01 (2×)
parasite growth, replicate wells (Fig 1b) ([2]; Log[inhibitor] (M) -7.903, listed as Halofuginone (1)): 8.60E+01 (2×) and 9.10E+01
parasite growth, replicate wells (Fig 1b) ([2]; Log[inhibitor] (M) -8.204, listed as Halofuginone (1)): 1.04E+02 and 1.02E+02 (2×)
parasite growth, replicate wells (Fig 1b) ([2]; Log[inhibitor] (M) -8.505, listed as Halofuginone (1)): 1.05E+02 and 1.03E+02 and 9.50E+01
parasite growth, replicate wells (Fig 1b) [2, 4]: 9.20E+01 and 9.40E+01 and 9.50E+01
parasite growth, replicate wells (Fig 1b) [2, 5]: 9.60E+01 and 9.70E+01 and 9.40E+01
parasite growth, replicate wells (Fig 1b) [2, 6]: 9.80E+01 and 9.60E+01 and 9.50E+01
parasite growth, replicate wells (Fig 1b) [2, 7]: 9.90E+01 and 1.00E+02 and 9.80E+01
parasite growth, replicate wells (Fig 1b) [2, 8]: 1.00E+02 and 9.60E+01 and 9.90E+01
parasite growth, replicate wells (Fig 1b) [2, 9]: 9.90E+01 (2×) and 1.00E+02
EC50 ([3]; DD2, cell line S1 - Clone A8, read-out: EC50 [nM] mean): 0.641 nM
EC50 ([3]; DD2, cell line S1 - bulk population, read-out: EC50 [nM] mean): 0.951 nM
EC50 ([3]; DD2, cell line S2 - Clone A3, read-out: EC50 [nM] mean): 0.36 nM
EC50 ([3]; DD2, cell line S2 - Clone B9, read-out: EC50 [nM] mean): 0.694 nM
EC50 ([3]; DD2, cell line S2 - Clone C5, read-out: EC50 [nM] mean): 0.439 nM
EC50 ([3]; DD2, cell line S2 - bulk population, read-out: EC50 [nM] mean): 0.432 nM
EC50 ([3]; DD2, cell line S3 - Clone B3, read-out: EC50 [nM] mean): 2.51 nM
EC50 ([3]; DD2, cell line S3 - Clone B7, read-out: EC50 [nM] mean): 2.01 nM
EC50 ([3]; DD2, cell line S3 - bulk population, read-out: EC50 [nM] mean): 2.56 nM
EC50 ([3]; DD2, read-out: EC50 [nM] mean, cell line S3 - Clone B2): 2.75 nM
Fold-change Resistance ([3]; S1 - Clone A8): 0.97 and 0.75 and 1.48
Fold-change Resistance ([3]; S2 - Clone B9): 0.89 and 1.08
Fold-change Resistance ([3]; S2 - Clone C5): 0.56 and 0.68
Fold-change Resistance ([3]; S3 - Clone B2): 3.65 and 3.48
Fold-change Resistance ([3]; S3 - Clone B3): 3.93 and 2.72 and 3.23
Fold-change Resistance ([3]; S3 - Clone B7): 2.66 and 3.07 and 3.15
binding mode with respect to substrates (ATP, proline) (PfcProRS): ATP-uncompetitive binding
fold increased affinity in the presence of ATP (PfcProRS; 500 μM ATP vs 0 μM ATP): > 6000 fold
dose-response signal (normalized), SI Fig 8 (PfcProRS; Log[inhibitor] (M) -5.000): 7.25E-01 and 6.60E-01 and 7.89E-01
dose-response signal (normalized), SI Fig 8 (PfcProRS; Log[inhibitor] (M) -5.258): 8.77E-01 and 7.58E-01 and 8.28E-01
dose-response signal (normalized), SI Fig 8 (PfcProRS; Log[inhibitor] (M) -5.517): 8.36E-01 and 8.59E-01 and 9.08E-01
dose-response signal (normalized), SI Fig 8 (PfcProRS; Log[inhibitor] (M) -5.775): 9.71E-01 and 9.45E-01 and 1.00E+00
dose-response signal (normalized), SI Fig 8 (PfcProRS; Log[inhibitor] (M) -6.018): 9.98E-01 and 1.00E+00 and 1.01E+00
dose-response signal (normalized), SI Fig 8 (PfcProRS; Log[inhibitor] (M) -6.281): 9.70E-01 and 1.00E+00 and 9.36E-01
dose-response signal (normalized), SI Fig 8 (PfcProRS; Log[inhibitor] (M) -6.535): 9.87E-01 and 8.91E-01 and 9.43E-01
dose-response signal (normalized), SI Fig 8 (PfcProRS; Log[inhibitor] (M) -6.796): 1.03E+00 (2×) and 1.00E+00
dose-response signal (normalized), SI Fig 8 (PfcProRS; Log[inhibitor] (M) -7.056): 9.55E-01 and 1.03E+00 (2×)
dose-response signal (normalized), SI Fig 8 (PfcProRS; Log[inhibitor] (M) -7.319): 1.02E+00 (2×) and 9.30E-01
dose-response signal (normalized), SI Fig 8 (PfcProRS; Log[inhibitor] (M) -7.553): 9.85E-01 and 1.03E+00 and 9.40E-01
dose-response signal (normalized), SI Fig 8 (PfcProRS; Log[inhibitor] (M) -7.796): 9.66E-01 and 1.04E+00 and 1.00E+00
dose-response signal (normalized), SI Fig 8 (PfcProRS; Log[inhibitor] (M) -8.097): 1.01E+00 and 9.81E-01 and 1.00E+00
dose-response signal (normalized), SI Fig 8 (PfcProRS; Log[inhibitor] (M) -8.398): 9.48E-01 and 1.10E+00 and 1.01E+00
dose-response signal (normalized), SI Fig 8 (PfcProRS; Log[inhibitor] (M) -8.585): 1.08E+00 and 9.61E-01 and 9.66E-01
PfcProRS -- best Kd (PfcProRS; SI Fig 16a, values on -log scale): 9.298
